ChEMBL document CHEMBL1201862, “PubChem BioAssay data set” (2004)
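Results reflect a 48-hour exposure of cells in 96-well plates to compound at five concentrations. At the GI50, growth is halved.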 The source made the active and inactive calls. No stated cut-off is given here; in the data, active = GI50 up to about 1.1 µM and inactive = higher.

Assays:
Assay in all cases: NCI tumour cell line growth inhibition, 48 h
786-0 = test system: 786-0
A498 = test system: A498
A549 = test system: A549
ACHN = test system: ACHN
CAKI-1 = test system: CAKI-1
CCRF-CEM = test system: CCRF-CEM
COLO 205 = test system: COLO 205
DLD-1 = test system: DLD-1
DMS-273 = test system: DMS-273
EKVX = test system: EKVX
HCC 2998 = test system: HCC 2998
HCT-116 = test system: HCT-116
HCT-15 = test system: HCT-15
HL-60 = test system: HL-60
HOP-18 = test system: HOP-18
HOP-62 = test system: HOP-62
HOP-92 = test system: HOP-92
HT-29 = test system: HT-29
IGROV-1 = test system: IGROV-1
K562 = test system: K562
KM-20L2 = test system: KM-20L2
KM12 = test system: KM12
LOX IMVI = test system: LOX IMVI
LXFL 529 = test system: LXFL 529
M14 = test system: M14
M19-MEL = test system: M19-MEL
MOLT-4 = test system: MOLT-4
Malme-3M = test system: Malme-3M
NCI-H226 = test system: NCI-H226
NCI-H23 = test system: NCI-H23
NCI-H460 = test system: NCI-H460
NCI-H522 = test system: NCI-H522
OVCAR-3 = test system: OVCAR-3
OVCAR-4 = test system: OVCAR-4
OVCAR-5 = test system: OVCAR-5
OVCAR-8 = test system: OVCAR-8
RPMI-8226 = test system: RPMI-8226
RXF 393 = test system: RXF 393
SF-268 = test system: SF-268
SF-295 = test system: SF-295
SF-539 = test system: SF-539
SK-MEL-28 = test system: SK-MEL-28
SK-MEL-2 = test system: SK-MEL-2
SK-MEL-5 = test system: SK-MEL-5
SK-OV-3 = test system: SK-OV-3
SN12C = test system: SN12C
SNB-19 = test system: SNB-19
SNB-75 = test system: SNB-75
SNB-78 = test system: SNB-78
SR = test system: SR
SW-620 = test system: SW-620
TK-10 = test system: TK-10
U-251 = test system: U-251
UACC-257 = test system: UACC-257
UACC-62 = test system: UACC-62
UO-31 = test system: UO-31
XF498 = test system: XF498

Question: `CC1=NN(c2ccccc2)C(=O)C12[C@H](c1ccccc1)C2(C#N)C#N` (some centres not stated) was tested. Which GI50 (786-0) did it give?
Answer: 2.41 µM (inactive)

Question: And the GI50 (A498)?
Answer: 16.9 µM (inactive)

Question: And the GI50 (A549)?
Answer: 16.3 µM (inactive)

Question: What about the GI50 (ACHN) of the same molecule?
Answer: 8.36 µM (inactive)

Question: And the GI50 (CAKI-1)?
Answer: 6.41 µM (inactive)

Question: And the GI50 (CCRF-CEM)?
Answer: 0.457 µM (active)

Question: What about the GI50 (COLO 205) of the same molecule?
Answer: 2.29 µM (inactive)

Question: And the GI50 (DLD-1)?
Answer: 2 µM (inactive)

Question: And the GI50 (DMS-273)?
Answer: 2.67 µM (inactive)

Question: What about the GI50 (EKVX) of the same molecule?
Answer: 18.3 µM (inactive)

Question: And the GI50 (HCC 2998)?
Answer: 18.5 µM (inactive)

Question: What about the GI50 (HCT-116) of the same molecule?
Answer: 3.21 µM (inactive)

Question: And the GI50 (HCT-15)?
Answer: 2.49 µM

Question: What about the GI50 (HL-60) of the same molecule?
Answer: 2.55 µM (inactive)

Question: What about the GI50 (HOP-18) of the same molecule?
Answer: 7.48 µM (inactive)

Question: And the GI50 (HOP-62)?
Answer: 17.3 µM (inactive)

Question: And the GI50 (HOP-92)?
Answer: 2.64 µM (inactive)

Question: And the GI50 (HT-29)?
Answer: 4.59 µM (inactive)

Question: And the GI50 (IGROV-1)?
Answer: 14.2 µM (inactive)

Question: What about the GI50 (K562) of the same molecule?
Answer: 1.85 µM (inactive)

Question: And the GI50 (KM-20L2)?
Answer: 11.8 µM (inactive)

Question: And the GI50 (KM12)?
Answer: 9.64 µM (inactive)

Question: And the GI50 (LOX IMVI)?
Answer: 1.78 µM (inactive)

Question: And the GI50 (LXFL 529)?
Answer: 1.96 µM (inactive)

Question: And the GI50 (M14)?
Answer: 1.44 µM (inactive)

Question: What about the GI50 (M19-MEL) of the same molecule?
Answer: 2.51 µM (inactive)

Question: And the GI50 (MOLT-4)?
Answer: 0.679 µM (active)

Question: What about the GI50 (Malme-3M) of the same molecule?
Answer: 4.68 µM (inactive)

Question: And the GI50 (NCI-H226)?
Answer: 12.8 µM (inactive)

Question: What about the GI50 (NCI-H23) of the same molecule?
Answer: 2.85 µM (inactive)

Question: And the GI50 (NCI-H460)?
Answer: 17.5 µM (inactive)

Question: What about the GI50 (NCI-H522) of the same molecule?
Answer: 2.88 µM (inactive)

Question: What about the GI50 (OVCAR-3) of the same molecule?
Answer: 7.03 µM (inactive)

Question: What about the GI50 (OVCAR-4) of the same molecule?
Answer: 5.46 µM (inactive)

Question: And the GI50 (OVCAR-5)?
Answer: 11.5 µM (inactive)

Question: What about the GI50 (OVCAR-8) of the same molecule?
Answer: 2.84 µM (inactive)

Question: What about the GI50 (RPMI-8226) of the same molecule?
Answer: 1.91 µM (inactive)

Question: And the GI50 (RXF 393)?
Answer: 5.19 µM (inactive)

Question: What about the GI50 (SF-268) of the same molecule?
Answer: 7.26 µM (inactive)

Question: What about the GI50 (SF-295) of the same molecule?
Answer: 12.9 µM (inactive)

Question: What about the GI50 (SF-539) of the same molecule?
Answer: 14.6 µM (inactive)

Question: And the GI50 (SK-MEL-28)?
Answer: 3.48 µM (inactive)

Question: What about the GI50 (SK-MEL-2) of the same molecule?
Answer: 6.43 µM (inactive)

Question: And the GI50 (SK-MEL-5)?
Answer: 4.48 µM (inactive)

Question: And the GI50 (SK-OV-3)?
Answer: 18.6 µM (inactive)

Question: What about the GI50 (SN12C) of the same molecule?
Answer: 3.95 µM (inactive)

Question: And the GI50 (SNB-19)?
Answer: 15.8 µM (inactive)

Question: What about the GI50 (SNB-75) of the same molecule?
Answer: 6.11 µM (inactive)

Question: What about the GI50 (SNB-78) of the same molecule?
Answer: 13.8 µM (inactive)

Question: What about the GI50 (SR) of the same molecule?
Answer: 1.91 µM (inactive)

Question: What about the GI50 (SW-620) of the same molecule?
Answer: 1.87 µM (inactive)

Question: And the GI50 (TK-10)?
Answer: 12.5 µM (inactive)

Question: And the GI50 (U-251)?
Answer: 15.4 µM (inactive)

Question: And the GI50 (UACC-257)?
Answer: 5.96 µM (inactive)

Question: And the GI50 (UACC-62)?
Answer: 3.44 µM (inactive)

Question: And the GI50 (UO-31)?
Answer: 14.7 µM (inactive)

Question: And the GI50 (XF498)?
Answer: 3.4 µM (inactive)
